{"source": "patent US20170027976A1", "about": "“NOVEL ADEMETIONINE FORMULATIONS” (METHYLATION SCIENCES INTERNATIONAL SRL, priority 2014, published 2017)", "origin": "cited, not measured here", "details": "background statement; large daily doses required", "data": [{"compound": "C[S+](CC[C@H](N)C(=O)[O-])C[C@H]1O[C@@H](n2cnc3c(N)ncnc32)[C@H](O)[C@@H]1O", "note": "(stereo partly drawn) [ademetionine, S-adenosyl-L-methionine]", "values": [{"measurement": "uptake of ademetionine", "result": "< 5", "unit": "%"}]}]}
